Results reported in ChEMBL document CHEMBL5352465, “Small molecules containing chalcogen elements (S, Se, Te) as new warhead to fight neglected tropical diseases” (Eur J Med Chem, 2023).
One block for each compound: values may come before it.

Key:
Leishmania panamensis [1] = test: Antileishmanial activity against Leishmania panamensis MHOM/CO/87/UA140-EpiR-GFP strain amastigotes assessed as inhibition of parasite growth incubated for 72 hrs by flow cytometric analysis; format: functional, organism-based
Leishmania panamensis [2] = test: Antileishmanial activity against Leishmania panamensis MHOM/CO/87/UA140-EpiR-GFP strain promastigotes assessed as inhibition of parasite growth incubated for 72 hrs by flow cytometric analysis; format: functional, organism-based
Trypanosoma cruzi [3] = test: Antitrypanosomal activity against bloodstream Trypanosoma cruzi Y strain trypomastigotes assessed as parasite growth inhibition incubated for 24 hrs by Neubauer chamber based light microscopic analysis; format: functional, organism-based
[4] = Selectivity index, ratio of CC50 for cytotoxicity against Swiss mouse peritoneal macrophages to IC50 for antitrypanosomal activity against bloodstream Trypanosoma cruzi Y strain trypomastigotes; format: toxicity; details: read-out: Ratio CC50/IC50
Trypanosoma brucei [5] = test: Antitrypanosomal activity against bloodstream Trypanosoma brucei assessed as parasite growth inhibition measured after 72 hrs by resazurin staining based analysis; format: functional, organism-based
[6] = tested on: Trypanosoma brucei gambiense; test: Antitrypanosomal activity against bloodstream Trypanosoma brucei gambiense assessed as parasite growth inhibition measured after 72 hrs by resazurin staining based analysis; format: functional, organism-based
[7] = Selectivity index, ratio of CC50 for rat L6 cells to IC50 for antitrypanosomal activity against bloodstream Trypanosoma brucei; format: toxicity; details: read-out: Ratio CC50/IC50
[8] = Selectivity index, ratio of CC50 for rat L6 cells to IC50 for antitrypanosomal activity against bloodstream Trypanosoma brucei gambiense; format: toxicity; details: read-out: Ratio CC50/IC50
Leishmania infantum = test: Antileishmanial activity against Leishmania infantum promastigotes assessed as reduction in cell viability incubated for 24 hrs by propidium iodide staining based flow cytometry assay; format: functional, organism-based
Leishmania donovani = test: Antileishmanial activity against Leishmania donovani promastigotes assessed as inhibition of parasite growth measured after 24 hrs by Alamar blue based analysis; format: functional, organism-based
Leishmania aethiopica = test: Antileishmanial activity against Leishmania aethiopica amastigotes assessed as inhibition of parasite growth measured after 24 hrs by Alamar blue based analysis; format: functional, organism-based
Leishmania amazonensis [9] = test: Antileishmanial activity against Leishmania amazonensis promastigotes assessed as inhibition of parasite growth; format: functional, organism-based
Leishmania braziliensis = test: Antileishmanial activity against Leishmania braziliensis promastigotes assessed as inhibition of parasite growth; format: functional, organism-based
[10] = Selectivity index, ratio of CC50 for […] to ratio of IC50 for antileishmanial activity against Leishmania infantum promastigote; format: toxicity, cell-based; details: read-out: Ratio CC50/IC50
Trypanosoma brucei [11] = test: Antitrypanosomal activity against bloodstream Trypanosoma brucei 427 strain assessed as parasite growth inhibition measured after 24 hrs by propidium iodide staining based flow cytometer method; format: functional, organism-based; details: Trypanosoma brucei, 427, 24 h
[12] = Selectivity index, ratio of CC50 for human CC cells to ratio of IC50 for antileishmanial activity against Leishmania major promastigote; format: toxicity; details: read-out: Ratio CC50/IC50
[13] = Selectivity index, ratio of LC50 for human U-937 cells to ratio of IC50 for antileishmanial activity against Leishmania panamensis MHOM/CO/87/UA140-EpiR-GFP strain promastigotes; format: toxicity; details: read-out: Ratio LC50/IC50
Leishmania amazonensis [14] = test: Antileishmanial activity against Leishmania amazonensis amastigotes assessed as inhibition of parasite growth; format: functional, organism-based
Trypanosoma cruzi [15] = test: Antitrypanosomal activity against bloodstream Trypanosoma cruzi Y strain trypomastigotes assessed as parasite growth inhibition incubated for 24 hrs by light microscopic analysis; format: functional, organism-based
Trypanosoma cruzi [16] = test: Antitrypanosomal activity against Trypanosoma cruzi Tulahuen strain trypomastigotes assessed as parasite growth inhibition incubated for 18 hrs by light microscopic analysis; format: functional
Leishmania tropica = test: Antileishmanial activity against Leishmania tropica promastigotes assessed as inhibition of parasite growth; format: functional, organism-based
Trypanosoma cruzi [17] = test: Antitrypanosomal activity against Trypanosoma cruzi Y strain epimastigotes assessed as parasite growth inhibition incubated for 48 hrs by spectrophotometric analysis; format: functional, organism-based
Trypanosoma cruzi [18] = test: Antitrypanosomal activity against Trypanosoma cruzi epimastigote assessed as parasite growth inhibition by optical density based analysis; format: functional, organism-based
[19] = target: Cruzipain (Trypanosoma cruzi) (UniProt P25779); test: Inhibition of Trypanosoma cruzi recombinant Cruzaine using Z-FR-AMC as substrate preincubated for 10 mins followed by substrate addition by fluorimeter analysis
Chain of Cruzipain (Trypanosoma cruzi) (P25779 123-467 limits assumed): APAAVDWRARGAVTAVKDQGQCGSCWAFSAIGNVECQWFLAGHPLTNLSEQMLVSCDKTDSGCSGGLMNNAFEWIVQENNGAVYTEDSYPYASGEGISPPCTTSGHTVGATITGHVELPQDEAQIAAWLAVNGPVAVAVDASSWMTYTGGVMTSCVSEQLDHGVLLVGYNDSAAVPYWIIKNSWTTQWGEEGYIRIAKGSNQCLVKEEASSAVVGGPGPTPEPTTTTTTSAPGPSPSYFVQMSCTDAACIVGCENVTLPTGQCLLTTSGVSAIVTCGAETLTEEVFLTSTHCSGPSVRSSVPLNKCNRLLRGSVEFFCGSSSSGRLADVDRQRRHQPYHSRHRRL

SMILES: O=C1C=C(c2ccc(C(F)(F)F)cc2)S(=O)(=O)c2ccc(F)cc21
- IC50 (Leishmania panamensis [1]): 6.72 µM
- IC50 (Leishmania panamensis [2]): 3.24 µM

- IC50 (Trypanosoma cruzi [3]): 9.5 µM
SMILES: C(=N\Nc1nnc(-c2ccccn2)s1)/c1ccccn1
- selectivity ratio [4]: 7.7

- IC50 (Trypanosoma brucei [5]): 0.091 µM
- IC50 [6]: 0.027 µM
SMILES: CCOC(=O)c1ccc(N/C=C2/SC(=O)N(C(Cc3ccccc3)C(=O)OCC)C2=S)cc1 (centres undefined)
- selectivity ratio [7]: 409
- selectivity ratio [8]: 1400

SMILES: CCc1cc(-c2csc(-c3ccc(-n4ccnc4CNCCN)cc3OCCN3CCNC3=O)n2)cc2ccccc12
- IC50 (Leishmania infantum): 5.1 µM

SMILES: Cc1ccc(-c2cc(C3CC(c4cccs4)=NN3)n(-c3ccccc3)n2)cc1 (centres undefined)
- IC50 (Leishmania donovani): 2.07 µM
- IC50 (Leishmania aethiopica): 1.08 µM

SMILES: NCCSc1ccnc2cc(Cl)ccc12
- IC50 (Leishmania amazonensis [9]): 52.9 µM
- IC50 (Leishmania braziliensis): 39.9 µM

SMILES: O=C1c2ccccc2C(=O)N1Nc1nc(-c2ccc(Cl)cc2Cl)cs1
- selectivity ratio [10]: 6.4

- IC50 (Trypanosoma brucei [11]): 2.7 µM
SMILES: CC(=O)OCC1OC([Se][Se]C2O[C@H](COC(C)=O)[C@@H](OC(C)=O)[C@@H](OC(C)=O)[C@H]2OC(C)=O)[C@H](OC(C)=O)[C@@H](OC(C)=O)C1OC(C)=O (some centres undefined)

SMILES: O=[N+]([O-])c1ccc(-c2nnc(NCCCO)s2)s1
- selectivity ratio [12]: 14

SMILES: COc1cc(C2=NN(c3ccccc3)C(c3sc(N(CCCl)CCCl)nc3Cl)C2)cc(OC)c1OC (centres undefined)
- IC50 (Leishmania panamensis [1]): 13.9 µM
- selectivity ratio [13]: 1.48

SMILES: COCCCNc1nnc(-c2ccc([N+](=O)[O-])s2)s1
- selectivity ratio [12]: 2

SMILES: O=C1c2ccccc2C(=O)N1Nc1nc(-c2ccc3ccccc3c2)cs1
- selectivity ratio [10]: 12.5

SMILES: CCc1cc(-c2csc(-c3ccc(-n4ccnc4CNCCN)cc3OCCN3CCNC3=O)n2)ccc1-c1ccccc1
- IC50 (Leishmania infantum): 8.6 µM

SMILES: Cc1ccc([Te]Cc2ncc(-c3ccc(S(C)(=O)=O)cc3)[se]2)cc1
- IC50 (Leishmania amazonensis [14]): 6.14 µM

- IC50 (Trypanosoma cruzi [3]): 9.3 µM
SMILES: Fc1ccc(-c2nnc(N/N=C/c3ccccn3)s2)cc1
- selectivity ratio [4]: 6

SMILES: CC(=O)N1N=C(c2cccs2)CC1c1cc(-c2ccc(C)cc2)nn1-c1ccccc1 (centres undefined)
- IC50 (Leishmania donovani): 0.16 µM
- IC50 (Leishmania aethiopica): 2.24 µM

- IC50 (Trypanosoma cruzi [15]): 2.14 µM
- IC90 (Trypanosoma cruzi [16]): 5.78 µM
SMILES: N=C(N)c1ccc2nc(-c3ccc(-c4ccc(OCCc5cn(Cc6cccc7ccccc67)nn5)cc4)s3)[nH]c2c1

SMILES: O=C(Nc1nc2cnc(Cl)nc2s1)c1ccc(Cl)cc1
- IC50 (Leishmania tropica): 7.5 µM

- IC50 (Trypanosoma cruzi [15]): 3.07 µM
- IC90 (Trypanosoma cruzi [16]): 7.78 µM
SMILES: CC(c1cccc2ccccc12)n1cc(CCOc2ccc(-c3ccc(-c4nc5ccc(C(=N)N)cc5[nH]4)s3)cc2)nn1 (centres undefined)

SMILES: O=C(Nc1nc2cnc(Cl)nc2s1)c1ccc(Cl)cc1Cl
- IC50 (Leishmania tropica): 0.5 µM

- IC50 (Trypanosoma brucei [5]): 0.679 µM
- IC50 [6]: 0.2 µM
SMILES: CCOC(=O)C(Cc1ccccc1)N1C(=O)S/C(=C/Nc2cc(S(=O)(=O)N3CCOCC3)ccc2C)C1=S (centres undefined)
- selectivity ratio [7]: > 255
- selectivity ratio [8]: > 870

SMILES: ClCCN(CCCl)c1nc(Cl)c(C2CC(c3ccc(Br)cc3)=NN2c2ccccc2)s1 (centres undefined)
- IC50 (Leishmania panamensis [1]): 10.9 µM
- selectivity ratio [13]: 1.6

SMILES: OCCSc1ccnc2cc(Cl)ccc12
- IC50 (Leishmania amazonensis [9]): > 100 µM
- IC50 (Leishmania braziliensis): > 100 µM

- IC50 (Trypanosoma cruzi [17]): 97.7 µM
SMILES: NS(=O)(=O)c1ccc(O)c([N+](=O)[O-])c1

- IC50 (Trypanosoma cruzi [18]): 27 µM
- inhibition [19]: 70%
SMILES: NC(=S)N/N=C/c1ccc[nH]1

- IC50 (Trypanosoma brucei [11]): 3.3 µM
SMILES: CC(=O)OCC1O[C@@H](OC(C)=O)[C@H]([Se][Se]C2O[C@H](COC(C)=O)[C@H](OC(C)=O)[C@H](OC(C)=O)[C@H]2OC(C)=O)[C@@H](OC(C)=O)[C@H]1OC(C)=O (some centres undefined)
